Measurements: US20180296487A1, “SUSTAINED RELEASE INJECTABLE NEUROSTEROID FORMULATIONS” (MARINUS PHARMACEUTICALS, INC., priority 2017, published 2018)
Read-outs that look alike come from different tables or passages of the source.

Assays:
[1] = cited from earlier work

SMILES	half-life ([1]; human plasma following oral administration)	Tmax ([1]; therapeutic blood levels are reached quickly)	solubility in water (Solubility in water) [µg/mL]	half-life ([1]; human plasma)
CC(=O)[C@H]1CC[C@H]2[C@@H]3CC[C@H]4C[C@](C)(O)CC[C@]4(C)[C@H]3CC[C@]12C [Ganaxolone, 3α-hydroxy, 3β-methyl-5α-pregnan-20-one]	approximately 20 hours	short	< 1	–
CC(=O)[C@H]1CC[C@H]2[C@@H]3CC[C@H]4C[C@H](O)CC[C@]4(C)[C@H]3CC[C@]12C [Allopregnanolone, 3α,5α-tetrahydroprogesterone]	–	–	–	about 45 minutes
